# Results from publication PMC6109075, “Characterization of membrane penetration and cytotoxicity of C9orf72-encoding arginine-rich dipeptides” (Scientific Reports, 2018).
# Entries after “also recorded” stand apart in the source; their conditions may differ. Ends that are not written are not given here. Peptide text beside a SMILES is read from it.
# What was measured:
# NSC34 cells [1] = test: Penetration of FITC-conjugated DRPs into NSC34 cells; format: cell-based, mouse; conditions: fluorescence intensity
# HEK293 cells = test: Confocal imaging of live or fixed/permeabilized HEK293 cells treated with FITC-labeled CPPs; format: cell-based, human; conditions: for entry into fixed/permeabilized cells: HEK293 cells after fixation/permeabilization, 10 μM FITC-peptide
# Protocol: HEK293 cells were treated with 10 μM of FITC-labeled CPPs for 1 hr in combination with Nucblue live dye and then washed with PBS twice. The images were obtained by FV10 confocal microscopy (Olympus, Japan) or LSM710 confocal microscopy (Zeiss, Germany).
# For RNAse A treatment, the HEK293 cells, fixed and permeabilized, were incubated with 10 μg/ml of recombinant RNAse A for 1 hr at 37 °C, followed by treatment with 10 μM of FITC-labeled peptides for 30 min. The cells were then washed with PBS twice and imaged with a confocal microscopy.
# Hela cells = test: Peptide penetration assay, Hela cells at different pH (imaging); format: cell-based, human; conditions: PBS pH6.0, pH7.4, pH8.0, 2 μM FITC-peptide, 1 hr
# Protocol: For imaging, Hela cells were washed twice with phosphate buffered saline (PBS) (pH7.4) and then incubated with PBS of different pH (pH6.0, pH7.4 and pH8.0) containing 2 μM of FITC-(PR)20 or FITC-R12 for 1 hr, followed by washing with PBS twice. For quantification, HEK293 cells were incubated with 10 μM FITC-(PR)20 in 10% FBS-DMEM for 30 min at 4 °C or 37 °C. The cells were washed twice with PBS and then re-suspended in PBS. The fluorescent signal was measured by a plate reader TECAN infinite F200.
# EGFR (Homo sapiens) = EGFR (Homo sapiens) (UniProt P00533); conditions: cited from earlier work
# NSC34 cells [2] = test: LDH release assay in NSC34 cells; format: cell-based, mouse; conditions: 24 hr, N = 6
# Protocol: LDH assay was performed with Cytotoxicity LDH Assay Kit-WST from Wako (Japan) following the manufacture’s protocol. Briefly, mouse neuronal NSC34 cells or human fibroblasts were plated on a 96-well plate at 2 × 10^4 cells/well and then treated with the indicated concentration of peptide for 24 hr (NSC34 cells) or 48 hr (fibroblasts) before measurement of LDH release. The absorbance was measured by iMark microplate absorbance reader (Biorad).
# [3] = Functional assay of (PR)12 stability after incubation in culture medium; format: in vitro ADME; conditions: 20 µM (PR)12-FITC, 2 hr with live HEK293 cells in DMEM-10%FBS, conditioned medium transferred to fixed/permeabilized HEK293 cells, read-out nucleolar accumulation
# NSC34 cells [4] = test: Cytotox glo assay in NSC34 cells; format: cell-based, mouse; conditions: 24 hr, N = 6
# Text: Anti-B23/nucleophosmin antibody was purchased from Cell signaling technology (Danvers, MA). RNAse A was obtained from Qiagen (Hilden, Germany). 1-Step Human Coupled IVT kit, oleic acid, poly-A RNA, Prolong Gold with DAPI and Nucblue live reagent were purchased from ThermoFisher Scientific (Waltham, MA). Cytotoxicity LDH Assay Kit-WST and octanol were obtained from Wako pure chemicals (Japan). Cell Titer-Glo and Cell-tox glo kits were purchased from Promega (Madison, WI). TAMRA-labeled random 15mer RNA was synthesized by Fasmac (Japan). Anti-puromycin antibody was purchased from Millipore.
# [5] = tested on: protein translation (Hela cell lysates); test: In vitro translation (IVT) assay, turboGFP fluorescence; format: biochemical, human; conditions: cell-free IVT, 100 μM peptide, turboGFP cDNA and Hela cell lysates, 37 °C, read every 1 min, N = 3
# Protocol: IVT assay was performed with 1-step Human-Coupled IVT kit (ThermoFisher) following manufacturer’s protocol. Briefly, turboGFP cDNA and Hela cell lysates were mixed in a 96 white-well PCR plate in the presence or absence of 100 μM of each peptide and incubated at 37 °C. The fluorescence from translated turboGFP was measured by LightCycler (Roche lifescience) every 1 min.
# [6] = Peptides absorption assay (buffer / octanol containing oleic acid); format: physicochemical; conditions: FITC-labeled peptide, buffers of different pH vs octanol containing 1% oleic acid (v/v), vortexed 5 min, fluorescence
# Protocol: All buffers used for the peptide absorption assay were prepared with 140 mM NaCl, 2.5 mM KCl, 5 mM HEPES, 5 mM glycine, and the final pH was adjusted with NaOH or HCl.
# The assay to show the effect of pH in peptides absorption into a hydrophobic phase was performed as previously reported. […] Fifty microliter of the buffer-peptide mix and 50 μl of octanol containing 1% of oleic acid (OA) (v/v) were placed into a microtubes and vortexed for 5 min, followed by centrifugation at 2200 g briefly to separate the octanol phase and buffer phase. After separation, octanol phase containing OA and absorbed peptides were collected and the fluorescence was measured by a plate reader TECAN infinite F200 (Mannedorf, Switzerland).
molecule,measurement,setting,value
N=C(N)NCCC[C@H](NC(=O)CNC(=O)[C@H](CCCNC(=N)N)NC(=O)CNC(=O)[C@H](CCCNC(=N)N)NC(=O)CNC(=O)[C@H](CCCNC(=N)N)NC(=O)CNC(=O)[C@H](CCCNC(=N)N)NC(=O)CNC(=O)[C@H](CCCNC(=N)N)NC(=O)CNC(=O)[C@H](CCCNC(=N)N)NC(=O)CNC(=O)[C@H](CCCNC(=N)N)NC(=O)CNC(=O)[C@H](CCCNC(=N)N)NC(=O)CNC(=O)[C@H](CCCNC(=N)N)NC(=O)CNC(=O)[C@H](CCCNC(=N)N)NC(=O)CNC(=O)[C@H](CCCNC(=N)N)NC(=O)CNC(=O)[C@H](CCCNC(=N)N)NC(=O)CNC(=O)[C@H](CCCNC(=N)N)NC(=O)CNC(=O)[C@H](CCCNC(=N)N)NC(=O)CNC(=O)[C@H](CCCNC(=N)N)NC(=O)CNC(=O)[C@H](CCCNC(=N)N)NC(=O)CNC(=O)[C@H](CCCNC(=N)N)NC(=O)CNC(=O)[C@H](CCCNC(=N)N)NC(=O)CNC(=O)[C@H](CCCNC(=N)N)NC(=O)CN)C(=O)O [(GR)20],penetration into NSC34 cells,NSC34 cells [1],also entered the cells as well
N=C(N)NCCC[C@H](NC(=O)[C@@H]1CCCN1C(=O)[C@H](CCCNC(=N)N)NC(=O)[C@@H]1CCCN1C(=O)[C@H](CCCNC(=N)N)NC(=O)[C@@H]1CCCN1C(=O)[C@H](CCCNC(=N)N)NC(=O)[C@@H]1CCCN1C(=O)[C@H](CCCNC(=N)N)NC(=O)[C@@H]1CCCN1C(=O)[C@H](CCCNC(=N)N)NC(=O)[C@@H]1CCCN1C(=O)[C@H](CCCNC(=N)N)NC(=O)[C@@H]1CCCN1C(=O)[C@H](CCCNC(=N)N)NC(=O)[C@@H]1CCCN1C(=O)[C@H](CCCNC(=N)N)NC(=O)[C@@H]1CCCN1C(=O)[C@H](CCCNC(=N)N)NC(=O)[C@@H]1CCCN1C(=O)[C@H](CCCNC(=N)N)NC(=O)[C@@H]1CCCN1C(=O)[C@H](CCCNC(=N)N)NC(=O)[C@@H]1CCCN1C(=S)Nc1ccc2c(c1)C(=O)OC21c2ccc(O)cc2Oc2cc(O)ccc21)C(=O)O [FITC-(PR)12] (HELM PEPTIDE1{[O=C1OC2(c3ccc(O)cc3Oc3cc(O)ccc32)c2ccc(NC(=S)[*:2])cc21].P.R.P.R.P.R.P.R.P.R.P.R.P.R.P.R.P.R.P.R.P.R.P.R}$$$$V2.0),entry into fixed/permeabilized cells,HEK293 cells,entered the cells and accumulated to nucleoli
N=C(N)NCCC[C@H](NC(=O)[C@@H]1CCCN1C(=O)[C@H](CCCNC(=N)N)NC(=O)[C@@H]1CCCN1C(=O)[C@H](CCCNC(=N)N)NC(=O)[C@@H]1CCCN1C(=O)[C@H](CCCNC(=N)N)NC(=O)[C@@H]1CCCN1C(=O)[C@H](CCCNC(=N)N)NC(=O)[C@@H]1CCCN1C(=O)[C@H](CCCNC(=N)N)NC(=O)[C@@H]1CCCN1C(=O)[C@H](CCCNC(=N)N)NC(=O)[C@@H]1CCCN1C(=O)[C@H](CCCNC(=N)N)NC(=O)[C@@H]1CCCN1C(=O)[C@H](CCCNC(=N)N)NC(=O)[C@@H]1CCCN1C(=O)[C@H](CCCNC(=N)N)NC(=O)[C@@H]1CCCN1C(=O)[C@H](CCCNC(=N)N)NC(=O)[C@@H]1CCCN1C(=O)[C@H](CCCNC(=N)N)NC(=O)[C@@H]1CCCN1C(=O)[C@H](CCCNC(=N)N)NC(=O)[C@@H]1CCCN1C(=O)[C@H](CCCNC(=N)N)NC(=O)[C@@H]1CCCN1C(=O)[C@H](CCCNC(=N)N)NC(=O)[C@@H]1CCCN1C(=O)[C@H](CCCNC(=N)N)NC(=O)[C@@H]1CCCN1C(=O)[C@H](CCCNC(=N)N)NC(=O)[C@@H]1CCCN1C(=O)[C@H](CCCNC(=N)N)NC(=O)[C@@H]1CCCN1C(=O)[C@H](CCCNC(=N)N)NC(=O)[C@@H]1CCCN1C(=O)[C@H](CCCNC(=N)N)NC(=O)[C@@H]1CCCN1C(=S)Nc1ccc2c(c1)C(=O)OC21c2ccc(O)cc2Oc2cc(O)ccc21)C(=O)O [FITC-(PR)20] (HELM PEPTIDE1{[O=C1OC2(c3ccc(O)cc3Oc3cc(O)ccc32)c2ccc(NC(=S)[*:2])cc21].P.R.P.R.P.R.P.R.P.R.P.R.P.R.P.R.P.R.P.R.P.R.P.R.P.R.P.R.P.R.P.R.P.R.P.R.P.R.P.R}$$$$V2.0),entry into fixed/permeabilized cells,HEK293 cells,entered the cells and accumulated to nucleoli
same,penetration of the plasma membrane of live cells,"HEK293 cells; live HEK293 cells, 10 μM FITC-peptide added to culture medium",penetrated the plasma membrane and accumulated to nucleoli
N=C(N)NCCC[C@H](NC(=O)[C@H](CCCNC(=N)N)NC(=O)[C@H](CCCNC(=N)N)NC(=O)[C@H](CCCNC(=N)N)NC(=O)[C@H](CCCNC(=N)N)NC(=O)[C@H](CCCNC(=N)N)NC(=O)[C@H](CCCNC(=N)N)NC(=O)[C@H](CCCNC(=N)N)NC(=O)[C@H](CCCNC(=N)N)NC(=O)[C@H](CCCNC(=N)N)NC(=O)[C@H](CCCNC(=N)N)NC(=O)[C@H](CCCNC(=N)N)NC(=S)Nc1ccc2c(c1)C(=O)OC21c2ccc(O)cc2Oc2cc(O)ccc21)C(=O)O [FITC-R12],effect of extracellular pH on distribution of peptide into cells,Hela cells,higher pH increased the distribution of FITC-labeled CPPs into the cells
GE11,Kd,EGFR (Homo sapiens),22 nM
PRPRPRPRPRPRPRPRPRPRPRPR [(PR)12],"cytotoxicity, LDH release",NSC34 cells [2],did not show cytotoxicity
same,stability in the culture medium,[3],stable in the culture medium
PRPRPRPRPRPRPRPRPRPRPRPRPRPRPRPRPRPRPRPR [(PR)20],"cytotoxicity, LDH release",NSC34 cells [2],killed the cells; also recorded: exerted stronger cytotoxicity
same,"cytotoxicity, Cytotox glo luminescence",NSC34 cells [4],killed the cells
same,penetration into NSC34 cells,NSC34 cells [1],entered NSC34 cells more efficiently
"amyloid β: amyloid β (40 a.a.), negative control peptide, from Peptide Institute",inhibition of protein translation in vitro (tGFP fluorescence),[5],did not see inhibitory effect
"human insulin: FITC-labeled recombinant human insulin (51 a.a.), non-permeable, from Sigma",effect of pH on absorption of peptide into the octanol phase,[6],did not enhance the absorption
